{"source": "paper PMC9234671", "about": "“Molecular determinants of αVβ5 localization in flat clathrin lattices – role of αVβ5 in cell adhesion and proliferation” (Journal of Cell Science, 2022)", "key": {"[1]": {"tested_on": "integrin β5 localization in PA-JEB/β4 keratinocytes", "assay": "Immunofluorescence: integrin β5 clustering in FAs/FCLs, PA-JEB/β4", "type": "cell-based, human", "source_text": "Fig. 3. Serine 759 and 762 are involved in regulating the localization of integrin β5. (A–C) Integrin β5 containing S759/762E or S759/762A mutations (A) were expressed in β5-deficient PA-JEB/β4 keratinocytes and the subcellular distribution of β5 was compared to β5-deficient keratinocytes expressing wild-type (WT) β5. Merged images show integrin β5 (green), vinculin (B) or clathrin (C) (red), actin (blue) and the cell nuclei (cyan). (D,E) Analysis of wild-type versus mutant integrin β5 clustering in FAs or FCLs. (F–I) PA-JEB/β4 keratinocytes were grown in 10% FCS-supplemented DMEM culture medium overnight and then treated with 5 nM calyculin A (Cal.A) or DMSO (vehicle control) for 30 min prior to fixation. Merged images show integrin β5 (green), vinculin (F) or clathrin (H) (red), actin (blue) and the cell nuclei (cyan), quantifications of β5 clustering in FAs or FCLs are shown in G,I. (J,K) Analysis of integrin β5 clustering in FAs or FCLs in PA-JEB keratinocytes after treatment with Cal.A. Representative confocal microscopy images are shown in Fig. S3. Scale bars: 20 μm. Data were obtained from three independent experiments. Total cells analyzed per condition: 109 (WT), 116 (S>E), 103 (S>A) (D), 81 (WT), 77 (S>E), 101 (S>A) (E), 126 and 123 (G), 111 and 101 (I), 106 and 102 (J), 115 and 109 (K). ****P<0.0001 (Mann–Whitney U-test). Box plots range from the 25th to 75th percentile; central line indicates the median; whiskers show smallest to largest value.\nPA-JEB/β4 keratinocytes were seeded on glass coverslips and cultured in complete KGM medium for 24 h, and then treated with DMEM plus 10% FCS for 24 h. Other cell lines were seeded on glass coverslips and cultured in DMEM plus 10% FCS. Cells were fixed with 2% paraformaldehyde (PFA) for 10 min, permeabilized with 0.2% Triton X-100 for 5 min, and blocked with PBS containing 2% bovine serum albumin (BSA; Sigma) for at least 30 min. Next, cells were incubated with the primary antibodies for 1 h at room temperature. Cells were washed three times before incubation with the secondary antibodies for 1 h. Additionally, nuclei were stained with DAPI, and filamentous actin was visualized using Alexa Fluor 488 or 647-conjugated phalloidin (Invitrogen). After three washing steps with PBS, the coverslips were mounted onto glass slides in Mowiol. Images were obtained using a Leica TCS SP5 confocal microscope with a 63× (NA 1.4) oil objective.\nImage analysis was performed using Fiji (ImageJ) ([Schindelin et al., 2012]; [Schneider et al., 2012]). To quantify integrin clustering in FAs (based on vinculin staining) versus FCLs (clathrin staining), background was subtracted in both channels using a bilateral filter and the region of interest (ROI) was selected at the cell periphery. Colocalization of integrin clusters and FAs or FCLs was determined using the Image Calculator (command ‘multiply’) on both channels and calculating the area of overlapping clusters as a percentage of the total integrin cluster area per cell using the Analyze Particle function."}, "[2]": {"tested_on": "phosphorylated MLC in PA-JEB/β4 keratinocytes", "assay": "Western blot: cell tension (phosphorylated myosin light chain)", "type": "cell-based, human", "conditions": "nocodazole", "experimental": "Proteins were separated by electrophoresis using a Bolt Novex 4–12% gradient Bis-Tris gels (Invitrogen) or 15% SDS-PAGE gels (made in-house), transferred to Immobilon-P transfer membranes (Millipore Corp) and blocked for at least 30 min in 2% BSA in TBST buffer (10 mM Tris-HCl pH 7.5, 150 mM NaCl and 0.3% Tween-20). Primary antibody (diluted 1:1000 in 2% BSA in TBST buffer) incubation took place overnight at 4°C. After washing twice with TBST and twice with TBS, blots were incubated for 1 h hour at room temperature with horseradish peroxidase-conjugated goat anti-mouse-IgG or goat anti-rabbit-IgG (diluted 1:3000 in 2% BSA in TBST buffer). After subsequent washing steps, the bound antibodies were detected by enhanced chemiluminescence using SuperSignal™ West Dura Extended Duration Substrate (ThermoFisher) or Clarity™ Western ECL Substrate (Bio-Rad) as described by the manufacturer. Signal intensities were quantified using ImageJ.\nFig. S4. (A) Representative western blots of phosphorylated myosin light chain (MLC) and GAPDH in PA-JEB/β4 keratinocytes treated with DMSO versus Nocodazole. […]\nμm. Quantifications of β5 or β5 mutants clustering in FAs are shown in (C-E). […] Total cells analyzed per condition: 90 (WT, DMSO), 111 (WT, Noco.) (C), 40 (S>E, DMSO), 80 (S>E, Noco.) (D), 65 (S>A, DMSO), 82 (S>A, Noco.) (E). […]"}}, "data": [{"smiles": "COC(=O)Nc1nc2ccc(C(=O)c3cccs3)cc2[nH]1", "note": "[nocodazole]", "values": [{"measurement": "localization of β5 in FCLs", "setting": "[1]; nocodazole", "result": "inhibits the localization of β5 in FCLs"}, {"measurement": "localization of β5 within FAs and FCLs", "setting": "[1]; nocodazole versus DMSO, three independent experiments", "result": "significant shift in the localization of β5 from FCLs to FAs"}, {"measurement": "localization of phospho-inhibitory β5 mutant", "setting": "[1]; nocodazole, β5-deficient keratinocytes expressing β5-S759/762A", "result": "neither of their localizations were altered"}, {"measurement": "localization of phospho-mimetic β5 mutant", "setting": "[1]; nocodazole, β5-deficient keratinocytes expressing β5-S759/762E", "result": "neither of their localizations were altered"}, {"measurement": "cell tension", "setting": "[2]", "result": "increased cell tension"}]}]}
